Experimental data taken from patent publication US20110263478A1, “SUR1 INHIBITORS FOR THERAPY” (priority 2008, published 2011).

How the values were obtained:
[1] = system: Abcc8 mRNA and SUR1 protein in bEnd.3 cells; assay: TNFα exposure of bEnd.3 cells: RT-PCR and immunoblot for Abcc8 / SUR1; format: cell-based, murine; settings: 6-hr exposure, 20 ng/ml
Protocol: Immunoblot. Lysates of inferomedial cortex, or of cultured bEnd.3 cells (ATCC, Monassas, Va.) that had been exposed to TNFα (20 ng/ml) for 6 hr, were prepared by homogenizing in RIPA lysis buffer. SUR1 was immunoisolated using a custom antibody raised against amino acids 598-965 (Protein Id, NP_037171) in rabbits by a commercial service (Covance, Denver, Pa.). This custom antibody was used to immunoisolate SUR1 using standard techniques, following which immunoisolated SUR1 was run on electrophoretic gels (NuPAGE® 4-12% Bis-Tris gels; Novex, Invitrogen, Carlsbad, Calif.). SUR1 was detected using the same custom antibody. Membranes were stripped and re-blotted for β-actin (1:5000; Sigma), which was used as a loading control. Detection was carried out using the ECL system (Amersham BioTBIences, Inc.) with routine imaging (Fuji LAS-3000) and quantification (Scion Image, Scion Corp, Frederick, Md.).
RT-PCR. bEnd.3 cells were exposed to TNFα (20 ng/ml) for 6 hr. RNA was extracted with TRIzol reagent (Invitrogen). RT-PCR was performed using Reverse Transcription System (Promega). The target transcript was reverse transcribed at RT for 10 min, then incubated at 42° C. for 15 min. The cDNA was amplified using 35 cycles under the following conditions: 94° C. for 30 sec; 57° C. for 45 sec; 72° C. for 45 sec. […] RT-PCR products (449 bp) were analyzed using 2.0% agarose/EtBr gel electrophoresis.

[2] = system: rAbcc8 promoter / NFκB consensus sequences; assay: Luciferase reporter assay in HeLa cells; format: cell-based; settings: 20 ng/ml
Protocol: Luciferase reporter assay. TNFα-stimulated activity of the promoter region of Abcc8 was determined using luciferase reporter plasmids as previously described. HeLa cells were transfected with luciferase reporter plasmids containing the rAbcc8 promoter (−3853 to +125) or four tandem NFκB consensus sequences (Clonetech, Mountain View, Calif.) using Lipofectamine-2000 (Invitrogen). Co-transfection of pRL-CMV, Renilla luciferase expression plasmid served as a control for transfection efficiency. The luciferase activity of cell extracts was determined using the Dual Luciferase system from Promega.

[3] = system: rats with spinal cord injury (SCI); assay: Rat cervical SCI model: neurobehavioral assessment (inclined plane, paw placement, rearing); format: in vivo
Protocol: (§1) SCI injury model. This study was performed in accordance with the guidelines of the Institutional Animal Care and Use Committee. Adult female Long-Evans rats (275-350 gm) were anesthetized (Ketamine, 60 mg/kg plus Xylazine, 7.5 mg/kg, i.p.). The dura at C4-5 was exposed via a left hemilaminectomy. A hemi-cervical spinal cord contusion was created using a blunt force impactor (1.3-mm impactor head driven by a 10 gm weight dropped vertically 25 mm) (Soblo sky et al., 2001; Gensel et al., 2006). After SCI, animals were given 10 ml of glucose-free normal saline s.q. Rectal temperature was maintained at ˜37° C. using a servo-controlled warming blanket.
For in vivo gene suppression of SUR1, we used oligodeoxynucleotides that were phosphorothioated at 4 distal bonds to protect against endogenous nucleases (35).
Neurobehavioral assessment. All measurements were performed by blinded evaluators. Performance on the inclined plane was evaluated as described (Rivlin and Tator, 1977). To assess paw placement and vertical exploration (rearing) (Nikulina et al., 2004) animals were videotaped while in a translucent cylinder (19×20 cm). Rearing was quantified as the number of seconds spent with both front paws elevated above shoulder-height during a 3-min period of observation.

[4] = target: native and recombinant β-cell KATP channels (Homo sapiens, UniProt Q09428); settings: read-out: IC50, block of β-cell KATP channels; cited from earlier work
Sequence of native and recombinant β-cell KATP channels (Q09428 whole entry): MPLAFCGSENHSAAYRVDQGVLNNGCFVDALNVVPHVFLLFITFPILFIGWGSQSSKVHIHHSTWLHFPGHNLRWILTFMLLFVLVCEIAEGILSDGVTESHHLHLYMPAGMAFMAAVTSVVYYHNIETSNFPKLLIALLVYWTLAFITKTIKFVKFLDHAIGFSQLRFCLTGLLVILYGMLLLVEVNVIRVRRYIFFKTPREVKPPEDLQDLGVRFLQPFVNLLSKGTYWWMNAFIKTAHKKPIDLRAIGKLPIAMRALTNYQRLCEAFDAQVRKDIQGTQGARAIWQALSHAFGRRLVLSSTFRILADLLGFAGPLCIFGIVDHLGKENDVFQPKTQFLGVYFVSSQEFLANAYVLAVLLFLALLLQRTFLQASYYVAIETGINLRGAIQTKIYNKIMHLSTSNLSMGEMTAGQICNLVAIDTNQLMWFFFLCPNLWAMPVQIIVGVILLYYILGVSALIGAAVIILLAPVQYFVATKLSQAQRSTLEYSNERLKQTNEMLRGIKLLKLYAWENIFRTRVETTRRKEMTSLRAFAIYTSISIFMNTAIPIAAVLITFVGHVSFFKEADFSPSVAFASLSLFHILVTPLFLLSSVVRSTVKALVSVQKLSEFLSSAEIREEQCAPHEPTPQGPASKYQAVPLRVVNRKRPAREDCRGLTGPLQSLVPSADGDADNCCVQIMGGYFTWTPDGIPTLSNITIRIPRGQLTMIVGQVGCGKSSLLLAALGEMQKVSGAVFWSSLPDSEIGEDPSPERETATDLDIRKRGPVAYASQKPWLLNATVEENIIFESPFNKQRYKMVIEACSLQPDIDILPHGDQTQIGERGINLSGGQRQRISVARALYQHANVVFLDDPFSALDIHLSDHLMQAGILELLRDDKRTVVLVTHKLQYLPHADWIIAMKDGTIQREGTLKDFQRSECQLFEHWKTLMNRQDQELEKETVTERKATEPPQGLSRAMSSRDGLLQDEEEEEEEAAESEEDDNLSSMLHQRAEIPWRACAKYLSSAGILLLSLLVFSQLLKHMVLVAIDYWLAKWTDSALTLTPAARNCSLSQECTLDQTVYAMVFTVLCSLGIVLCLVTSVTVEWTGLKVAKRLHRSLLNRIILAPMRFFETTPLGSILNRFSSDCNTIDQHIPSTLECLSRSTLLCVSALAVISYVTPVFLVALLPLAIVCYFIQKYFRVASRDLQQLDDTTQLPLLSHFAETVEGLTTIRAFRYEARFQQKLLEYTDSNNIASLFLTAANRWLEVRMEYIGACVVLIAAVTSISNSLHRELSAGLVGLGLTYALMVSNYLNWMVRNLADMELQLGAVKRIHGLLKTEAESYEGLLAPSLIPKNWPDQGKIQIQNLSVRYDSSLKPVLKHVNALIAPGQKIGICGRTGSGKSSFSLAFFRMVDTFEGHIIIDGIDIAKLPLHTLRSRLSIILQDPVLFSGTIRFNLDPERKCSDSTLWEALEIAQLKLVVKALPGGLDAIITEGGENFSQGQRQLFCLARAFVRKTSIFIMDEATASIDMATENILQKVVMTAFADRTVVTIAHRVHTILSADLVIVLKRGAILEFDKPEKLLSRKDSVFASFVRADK
Sequence of native and recombinant β-cell KATP channels (Q14654 whole entry partner): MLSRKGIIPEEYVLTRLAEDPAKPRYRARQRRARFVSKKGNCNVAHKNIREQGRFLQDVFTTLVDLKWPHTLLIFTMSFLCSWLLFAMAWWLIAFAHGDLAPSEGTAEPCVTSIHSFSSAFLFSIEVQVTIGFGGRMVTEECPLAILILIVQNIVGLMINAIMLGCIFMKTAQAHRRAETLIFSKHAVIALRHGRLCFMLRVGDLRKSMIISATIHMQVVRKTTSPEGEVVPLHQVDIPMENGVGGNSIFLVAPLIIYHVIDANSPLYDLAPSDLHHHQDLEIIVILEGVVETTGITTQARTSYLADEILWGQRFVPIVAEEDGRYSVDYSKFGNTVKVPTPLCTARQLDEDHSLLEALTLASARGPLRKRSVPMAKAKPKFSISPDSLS

[5] = system: rats with spinal cord injury (SCI); assay: Rat cervical SCI model: histology, capillaries and lesion size; format: in vivo; settings: 7 d post-SCI
Protocol: as §1, with “blanket. Blood gases and serum glucose 10-15 min post-SCI were: pO2, 95±6 mm Hg; pCO2, 46±3 mm Hg; pH, 7.33±0.01; glucose 258±17 mg/dl in controls and pO2, 96±7 mm Hg; pCO2, 45±2 mm Hg; pH, 7.37±0.01; glucose 242±14 mg/dl in glibenclamide-treated animals.” for “blanket.”
(§2) Drug delivery. […] During the course of the project, slightly different formulations of drug were used, with the best results obtained using stock solutions made by placing 50 mg (or 25 mg) of drug into 10 ml DMSO, and infusion solutions made by placing 400 μl (or 800 μl) stock into 4.6 ml (or 4.2 ml) unbuffered saline (0.9% NaCl) and adjusting the pH to ˜8.5 using 0.1 N NaOH.
Lesion size. At 7 d post-SCI, cords were paraffin sectioned and stained with H&E. Lesion volumes were calculated from lesion areas measured on serial sections every 250 μm.
Immunohistochemistry. Cryosections were immunolabeled (Chen et al., 2003; Simard et al., 2006) using primary antibodies directed against SUR1 (Santa Cruz, C-16; 1:200; 1 h at RT, 48 h at 4° C.), SUR2 (Santa Cruz, H-80; 1:200; 1 h at RT, 48 h at 4° C.), GFAP (Sigma, C-9205; 1:500), and vimentin (Sigma, monoclonal CY3 conjugated; 1:100). Quantitative immunofluorescence was performed as described (Gerzanich et al., 2003).

[6] = system: rats with spinal cord injury (SCI); assay: Rat cervical SCI model: hemorrhage / extravasated blood in cord; format: in vivo; settings: 1 d post-SCI
Protocol: Constant infusion of a low-dose of drug was used to achieve sustained occupancy of only high-affinity receptors.
as §1, with “blanket. Blood gases and serum glucose 10-15 min post-SCI were: pO2, 95±6 mm Hg; pCO2, 46±3 mm Hg; pH, 7.33±0.01; glucose 258±17 mg/dl in controls and pO2, 96±7 mm Hg; pCO2, 45±2 mm Hg; pH, 7.37±0.01; glucose 242±14 mg/dl in glibenclamide-treated animals.” for “blanket.”
as §2
(§3) For in vivo gene suppression of SUR1, we used oligodeoxynucleotides that were phosphorothioated at 4 distal bonds to protect against endogenous nucleases (35). Within a few min of SCI, mini-osmotic pumps (Alzet 2002, 0.5 μl/h; Durect Corporation) with jugular vein catheters were implanted that delivered either scrambled sequence ODN (Scr-ODN) (5′-[…]-3′; SEQ ID NO:1) or antisense ODN (AS-ODN) (5′-[…]-3′; SEQ ID NO:2) (Yokoshiki et al., 1999) in PBS at a rate of 1 mg/rat/24 h.
Tissue blood. Rats were sacrificed at various times after SCI (n=5-11 rats/group), were perfused with heparinized saline to remove intravascular blood, and 5-mm segments of cord encompassing the lesion were homogenized and processed as described (Choudhri et al., 1997).

SUR1 [7] = assay: SCI with i.v. ODN: SUR1 immunolabeling of cord; format: in vivo, rat
Excerpt: For studies with SCI, AS-ODN and Scr-ODN were used that were phosphorothioated at 4 distal bonds to protect against endogenous nucleases (Galderisi et al., 1999), with ODN's administered i.v. starting immediately after injury. […] With Scr-ODN, the necrotic void beneath the impact site was surrounded by an SUR1-positive shell of tissue, similar to observations in untreated animals (FIG. 1a). With AS-ODN, however, only the small volume of tissue immediately beneath the impact site was labeled for SUR1, and no necrotic void was evident (FIG. 5c).
as §3
Immunohistochemistry. […] Quantitative immunofluorescence was performed as described (Gerzanich et al., 2003).

SUR1 [8] = assay: Gliotic capsule model with ODN infusion: SUR1 Western blot and astrocyte patch clamp; format: in vivo, rat
Protocol: To validate the antisense strategy, it was first implemented in the model that was originally used for the discovery of the NCCa-ATP channel, wherein a gelatin sponge is implanted into the parietal lobe to stimulate formation of a gliotic capsule (Chen and Simard, 2001). Here, animals were also fitted with mini-osmotic pumps that delivered oligodeoxynucleotides (ODN), either antisense (AS) or scrambled (Scr), continuously for 7 d into the injury site.
SUR1 knock-down in astrocytes was performed in triplicates by implanting rats with gelatin sponges in the parietal lobe to induce formation of a gliotic capsule containing reactive astrocytes that express the SUR1-regulated NCCa-ATP channel (Chen and Simard, 2001; Chen et al., 2003). At the same time, they were implanted with mini-osmotic pumps (Alzet, model 2002; 14-day pump) placed in the dorsal thoracolumbar region that contained ODN (711 μg/ml delivered @ 0.5 μl/h, yielding 1500 picomoles/day), with the delivery catheter placed directly into the site of the gelatin sponge implant in the brain. Animals were infused with Src-ODN or AS-ODN, as above but not phosphorothioated. After 10-14 days, the gelatin sponge plus encapsulating gliotic tissues were harvested and processed either for Western immunoblots or to obtain fresh reactive astrocytes for patch clamp electrophysiology. […]

[9] = target: SUR1-regulated NCCa-ATP channels (Rattus norvegicus, UniProt Q09429); settings: read-out: EC50, block of SUR1-regulated NCCa-ATP channel; cited from earlier work
Sequence of SUR1-regulated NCCa-ATP channels (Q09429 whole entry): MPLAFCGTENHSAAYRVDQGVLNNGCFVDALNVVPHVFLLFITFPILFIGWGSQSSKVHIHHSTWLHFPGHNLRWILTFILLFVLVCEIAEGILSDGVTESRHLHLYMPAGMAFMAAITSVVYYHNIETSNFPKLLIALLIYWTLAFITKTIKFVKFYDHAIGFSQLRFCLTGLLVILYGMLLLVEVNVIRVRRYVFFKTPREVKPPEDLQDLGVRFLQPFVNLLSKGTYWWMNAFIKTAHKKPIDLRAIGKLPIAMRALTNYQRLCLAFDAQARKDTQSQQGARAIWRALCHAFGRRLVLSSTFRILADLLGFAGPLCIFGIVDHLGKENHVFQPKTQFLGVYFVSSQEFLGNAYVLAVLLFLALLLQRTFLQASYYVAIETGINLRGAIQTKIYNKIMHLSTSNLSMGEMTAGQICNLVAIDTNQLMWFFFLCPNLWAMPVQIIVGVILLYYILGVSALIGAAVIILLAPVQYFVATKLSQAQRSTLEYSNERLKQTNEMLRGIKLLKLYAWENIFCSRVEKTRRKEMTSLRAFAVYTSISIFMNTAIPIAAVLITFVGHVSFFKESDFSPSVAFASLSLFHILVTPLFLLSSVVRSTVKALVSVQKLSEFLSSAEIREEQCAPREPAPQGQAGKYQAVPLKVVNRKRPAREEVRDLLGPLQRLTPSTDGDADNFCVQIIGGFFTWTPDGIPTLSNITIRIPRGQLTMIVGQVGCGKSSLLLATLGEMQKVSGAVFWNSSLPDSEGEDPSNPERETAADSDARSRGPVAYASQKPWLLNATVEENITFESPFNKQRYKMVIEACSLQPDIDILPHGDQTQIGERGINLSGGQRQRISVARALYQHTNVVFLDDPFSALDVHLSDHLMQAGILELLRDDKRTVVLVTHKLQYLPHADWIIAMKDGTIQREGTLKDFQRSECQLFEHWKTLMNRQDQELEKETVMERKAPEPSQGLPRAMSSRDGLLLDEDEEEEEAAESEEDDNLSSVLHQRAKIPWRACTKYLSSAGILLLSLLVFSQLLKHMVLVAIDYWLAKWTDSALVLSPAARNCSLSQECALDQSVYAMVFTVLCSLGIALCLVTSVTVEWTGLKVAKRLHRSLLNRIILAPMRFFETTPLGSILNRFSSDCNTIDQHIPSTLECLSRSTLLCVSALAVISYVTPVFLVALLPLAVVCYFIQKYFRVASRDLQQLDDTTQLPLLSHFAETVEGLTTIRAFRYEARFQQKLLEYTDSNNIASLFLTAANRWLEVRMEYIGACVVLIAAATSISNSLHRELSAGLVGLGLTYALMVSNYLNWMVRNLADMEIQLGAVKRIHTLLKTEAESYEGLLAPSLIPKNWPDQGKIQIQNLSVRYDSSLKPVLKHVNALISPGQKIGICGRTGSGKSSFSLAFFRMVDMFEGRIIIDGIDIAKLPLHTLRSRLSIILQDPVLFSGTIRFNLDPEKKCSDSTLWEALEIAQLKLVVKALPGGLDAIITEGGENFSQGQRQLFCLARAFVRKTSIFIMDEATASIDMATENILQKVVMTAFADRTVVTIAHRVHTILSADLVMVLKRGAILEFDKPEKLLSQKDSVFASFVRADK
Sequence of SUR1-regulated NCCa-ATP channels (Q9ESQ5 whole entry partner): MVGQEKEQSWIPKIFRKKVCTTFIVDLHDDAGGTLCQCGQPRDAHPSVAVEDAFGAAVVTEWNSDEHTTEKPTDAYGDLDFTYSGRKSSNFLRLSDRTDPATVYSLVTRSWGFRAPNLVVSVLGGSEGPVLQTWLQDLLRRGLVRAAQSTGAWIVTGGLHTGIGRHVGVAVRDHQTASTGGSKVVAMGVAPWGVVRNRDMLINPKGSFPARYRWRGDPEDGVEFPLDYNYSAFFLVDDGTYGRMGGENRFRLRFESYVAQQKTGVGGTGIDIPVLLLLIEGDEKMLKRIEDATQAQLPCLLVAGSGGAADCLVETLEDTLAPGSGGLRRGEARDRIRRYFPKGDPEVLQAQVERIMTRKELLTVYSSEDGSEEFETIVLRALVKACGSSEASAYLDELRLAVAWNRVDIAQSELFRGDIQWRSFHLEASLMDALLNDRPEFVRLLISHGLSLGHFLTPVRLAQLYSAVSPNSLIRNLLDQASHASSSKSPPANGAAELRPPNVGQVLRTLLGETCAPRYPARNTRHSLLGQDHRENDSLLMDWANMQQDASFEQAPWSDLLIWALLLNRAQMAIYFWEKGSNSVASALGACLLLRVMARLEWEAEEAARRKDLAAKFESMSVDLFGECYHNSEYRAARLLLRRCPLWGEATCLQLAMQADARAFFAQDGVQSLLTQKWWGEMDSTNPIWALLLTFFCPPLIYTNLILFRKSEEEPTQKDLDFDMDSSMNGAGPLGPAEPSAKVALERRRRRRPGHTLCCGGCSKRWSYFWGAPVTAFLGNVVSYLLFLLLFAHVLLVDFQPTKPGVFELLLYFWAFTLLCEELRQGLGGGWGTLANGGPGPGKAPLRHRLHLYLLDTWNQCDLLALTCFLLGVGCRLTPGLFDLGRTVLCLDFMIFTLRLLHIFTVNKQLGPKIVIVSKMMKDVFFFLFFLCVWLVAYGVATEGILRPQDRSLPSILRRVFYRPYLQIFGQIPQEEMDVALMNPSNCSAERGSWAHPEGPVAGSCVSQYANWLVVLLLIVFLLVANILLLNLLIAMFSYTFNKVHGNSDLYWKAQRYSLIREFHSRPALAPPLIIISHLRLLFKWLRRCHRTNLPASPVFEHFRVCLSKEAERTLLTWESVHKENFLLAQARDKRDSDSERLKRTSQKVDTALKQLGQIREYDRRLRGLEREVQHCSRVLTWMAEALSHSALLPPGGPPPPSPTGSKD

[10] = target: T1, SUR-regulated channels (KATP / NCCa-ATP) in human aortic endothelial cells (Homo sapiens, UniProt Q09428); assay: Nystatin-perforated patch clamp, diazoxide activation in endothelial cells cultured under normoxic or hypoxic conditions; format: cell-based; settings: most endothelial cells cultured under hypoxic conditions
T1 construct: host or cells: human aortic endothelial cells, cultured under normoxic or hypoxic conditions
T1 sequence (Q09428 whole entry): as the sequence (Q09428 whole entry) above
Protocol: (§4) Patch clamp of endothelial cells was performed using a nystatin-perforated patch technique, to maintain the metabolic integrity of the cells. The identity of the activated channel can be assessed by measurement of the “reversal potential”, the potential at which an ion channel current reverses from inward to outward. With physiologically relevant concentrations of ions intracellularly and extracellularly (high potassium inside, high sodium outside), the reversal potential can unambiguously distinguish between a K^+ channel current such as KATP, which reverses negative to −50 mV and a non-selective cation channel current such as NCCa-ATP, which reverses near 0 mV.
(§5) Cell culture. Endothelial cell cultures from human brain microvessels, human aorta (ScienCell Research Laboratories), and murine brain microvessels (bEnd.3; ATCC), were grown at low density using media and supplements recommended by suppliers.

[11] = system: SUR-regulated channels (KATP / NCCa-ATP) in human aortic endothelial cells; assay: as above; format: cell-based; settings: endothelial cells cultured under normoxic conditions
Protocol: as §4, §5

[12] = 1 d post-SCI, ODN i.v., vs Scr-ODN

Molecule: TNFα
- Abcc8 mRNA and SUR1 protein [1]: both increased
- activity of rAbcc8 promoter, increase [2]: ~2 fold
- luciferase activity driven by NFκB binding sites, stimulation [2]: ~2.3 fold

Molecule: CCOc1cc(CC(=O)N[C@@H](CC(C)C)c2ccccc2N2CCCCC2)ccc1C(=O)O [repaglinide]
- vertical exploration (rearing), time during 3-min observation ([3]; 1 d post-SCI, 200 ng/h s.q.): 27 ± 6 s
- inclined plane, head down ([3]; post-SCI, vehicle 29±4, P=0.03): 47±3 degrees
- inclined plane, head up ([3]; post-SCI, vehicle 40±4, P=0.01): 62±2 degrees
- IC50 [4]: 0.9 to 7 nM
- lesion volume, reduction compared to controls [5]: 3 fold
- blood in cord homogenates ([6]; vehicle 1.8±0.2, P<0.01): 1.2 ± 0.1 µL

Molecule: 5′-GGCCGAGTGGTTCTCGGT-3′ (DNA, backbone not given here; phosphorothioate at four distal bonds) [AS-ODN]
- performance on inclined plane [3, 12]: significantly better performance
- vertical exploration [3, 12]: significantly better performance
- immunolabeling for SUR1 in cord (SUR1 [7]; 6 h post-SCI, ODN i.v. 1 mg/rat/24 h, vs controls): significantly less immunolabeling for SUR1
- normal expression of SUR1 in dorsal horn cells (SUR1 [7]; post-SCI, ODN i.v.): did not affect
- SUR1 protein in gliotic capsule (Western blot) (SUR1 [8]; ODN infused into injury site, vs Scr-ODN): significant reduction in SUR1 protein
- depolarization of gliotic capsule astrocytes on ATP depletion by Na azide (SUR1 [8]; vs Scr-ODN (rapidly depolarized)): depolarized only slightly or not at all
- lesion volume, reduction compared to controls [5]: 3 fold
- blood in cord homogenates ([6]; ODN i.v., vs Scr-ODN): reduced blood in cord homogenates

Molecule: Nc1ncnc2c1ncn2[C@@H]1O[C@H](COP(=O)(O)OP(=O)(O)OP(=O)(O)O)[C@@H](O)[C@H]1O [ATP]
- EC50 [9]: 790 nM

Molecule: CC1=NS(=O)(=O)c2cc(Cl)ccc2N1 [diazoxide]
- whole-cell current response to diazoxide [10]: activated an ohmic current that reversed near 0 mV
- whole-cell current response to diazoxide [11]: either had no effect or, in half of the cells, activated an outwardly rectifying current that reversed at potentials more negative than −50 mV
